Values of other authors as cited in patent publication US20070104788A1, “Once-daily administration of central nervous system drugs” (priority 2005, published 2007).
Like-named read-outs stand apart in the source and are kept apart here.

Conditions: for half life: background statement

Structure (SMILES) | half life [h] | Half-Life Elimination (metabolite of tramadol) [h] | Half-Life Elimination (parent drug) [h] | Half-Life Elimination (after a meal) | Half-Life Elimination (fasting)
COc1cccc([C@@]2(O)CCCC[C@H]2CN(C)C)c1 (racemic) [tramadol] | 6.3 | 7 | 5 to 6 |  | 
CN(C)C[C@H]1CCCC[C@]1(O)c1cccc(O)c1 [Ml] | 7.4 |  |  |  | 
Cc1cc(C)cc(OCC2CNC(=O)O2)c1 (stereo not shown) [metaxolone] |  |  |  | 2.4 ± 1.2 (after a meal) hours | 9.2 ± 4.8 (fasting) hours
COc1ccc2c3c1O[C@H]1C(=O)CC[C@@]4(O)[C@@H](C2)N(C)CC[C@]314 [oxycodone] |  |  | 0.4 |  | 
